Test results as given in ChEMBL document CHEMBL4340505, “000Synthesis of new α-aminophosphonates: Evaluation as anti-inflammatory agents and QSAR studies” (2019).
Calls of active or inactive are those of the source. The rule behind the calls is not given here.

What was measured:
Mus musculus [1] = assay: Antiinflammatory activity in TPA-induced ICR mouse ear edema model assessed as reduction in number of neutrophils at 5.7 mg/ear applied topically measured 4 hrs post-TPA challenge by giemsa staining-based microscopic method; format: functional, organism-based
Mus musculus [2] = assay: Antiinflammatory activity in ICR mouse assessed as inhibition of TPA-induced ear edema by measuring reduction in weight of ear punches applied topically measured 4 hrs post TPA-challenge; format: functional
Mus musculus [3] = assay: Antiinflammatory activity in TPA-induced ICR mouse ear edema model assessed as reduction in monocyte content at 5.7 mg/ear applied topically by giemsa staining-based microscopic method; format: functional, organism-based; conditions: TDE = time-dependent effect
Mus musculus [4] = assay: Antiinflammatory activity in TPA-induced ICR mouse ear edema model assessed as reduction in neutrophil content at 5.7 mg/ear applied topically by giemsa staining-based microscopic method; format: functional, organism-based; conditions: TDE = time-dependent effect
Mus musculus [5] = assay: Antiinflammatory activity in ICR mouse assessed as inhibition of TPA-induced ear edema by measuring reduction in weight of ear punches applied topically measured 4 hrs post TPA-challenge relative to control; format: functional
Mus musculus [6] = assay: Potency index, ratio of indomethacin ED50 to test compound ED50 for antiinflammatory activity in ICR mouse assessed as inhibition of TPA-induced ear edema by measuring reduction in weight of ear punches applied topically; format: functional
Mus musculus [7] = assay: Antiinflammatory activity in TPA-induced ICR mouse ear edema model assessed as reduction in neutrophil content AUC at 5.7 mg/ear applied topically measured 4 hrs post-TPA challenge by giemsa staining-based microscopic method relative to control; format: functional; design: scale not given: the % may be the effect or the level left
Mus musculus [8] = assay: Antiinflammatory activity in TPA-induced ICR mouse ear edema model assessed as reduction in monocytes content AUC at 5.7 mg/ear applied topically measured 4 hrs post TPA-challenge giemsa staining-based microscopic method; format: functional; design: scale not given: the % may be the effect or the level left
Mus musculus [9] = assay: Antiinflammatory activity in TPA-induced ICR mouse ear edema model assessed as reduction in monocyte content at 10 mg/ear applied topically by giemsa staining-based microscopic method; format: functional, organism-based; conditions: TDE = time-dependent effect
Mus musculus [10] = assay: Antiinflammatory activity in TPA-induced ICR mouse ear edema model assessed as reduction in number of neutrophils at 10 mg/ear applied topically measured 4 hrs post-TPA challenge by giemsa staining-based microscopic method; format: functional, organism-based
Mus musculus [11] = assay: Antiinflammatory activity in TPA-induced ICR mouse ear edema model assessed as reduction in neutrophil content at 10 mg/ear applied topically by giemsa staining-based microscopic method; format: functional, organism-based; conditions: TDE = time-dependent effect
Mus musculus [12] = assay: Antiinflammatory activity in TPA-induced ICR mouse ear edema model assessed as reduction in neutrophil content AUC at 10 mg/ear applied topically measured 4 hrs post-TPA challenge by giemsa staining-based microscopic method relative to control; format: functional; design: scale not given: the % may be the effect or the level left
Mus musculus [13] = assay: Antiinflammatory activity in TPA-induced ICR mouse ear edema model assessed as reduction in monocytes content AUC at 10 mg/ear applied topically measured 4 hrs post TPA-challenge giemsa staining-based microscopic method; format: functional; design: scale not given: the % may be the effect or the level left
Mus musculus [14] = assay: Antiinflammatory activity in TPA-induced ICR mouse ear edema model assessed as reduction in neutrophil content AUC at 3 mg/ear applied topically measured 4 hrs post-TPA challenge by giemsa staining-based microscopic method relative to control; format: functional; design: scale not given: the % may be the effect or the level left
Mus musculus [15] = assay: Antiinflammatory activity in TPA-induced ICR mouse ear edema model assessed as reduction in monocytes content AUC at 3 mg/ear applied topically measured 4 hrs post TPA-challenge giemsa staining-based microscopic method; format: functional; design: scale not given: the % may be the effect or the level left
Mus musculus [16] = assay: Antiinflammatory activity in TPA-induced ICR mouse ear edema model assessed as reduction in monocyte content at 3 mg/ear applied topically by giemsa staining-based microscopic method; format: functional, organism-based; conditions: TDE = time-dependent effect
Mus musculus [17] = assay: Antiinflammatory activity in TPA-induced ICR mouse ear edema model assessed as reduction in number of neutrophils at 3 mg/ear applied topically measured 4 hrs post-TPA challenge by giemsa staining-based microscopic method; format: functional, organism-based
Mus musculus [18] = assay: Antiinflammatory activity in TPA-induced ICR mouse ear edema model assessed as reduction in neutrophil content at 3 mg/ear applied topically by giemsa staining-based microscopic method; format: functional, organism-based; conditions: TDE = time-dependent effect
Mus musculus [19] = assay: Antiinflammatory activity in ICR mouse assessed as inhibition of TPA-induced ear edema by measuring reduction in weight of ear punches up to 1.25 mg/ear applied topically measured 4 hrs post TPA-challenge relative to control; format: functional
Mus musculus [20] = assay: Antiinflammatory activity in TPA-induced ICR mouse ear edema model assessed as reduction in number of neutrophils at 1 mg/ear applied topically measured 4 hrs post-TPA challenge by giemsa staining-based microscopic method; format: functional, organism-based
Mus musculus [21] = assay: Antiinflammatory activity in TPA-induced ICR mouse ear edema model assessed as reduction in neutrophil content AUC at 1 mg/ear applied topically measured 4 hrs post-TPA challenge by giemsa staining-based microscopic method relative to control; format: functional; design: scale not given: the % may be the effect or the level left
Mus musculus [22] = assay: Antiinflammatory activity in TPA-induced ICR mouse ear edema model assessed as reduction in monocytes content AUC at 1 mg/ear applied topically measured 4 hrs post TPA-challenge giemsa staining-based microscopic method; format: functional; design: scale not given: the % may be the effect or the level left

| Structure (SMILES) | ED50 (Mus musculus [2]) | inhibition (Mus musculus [2]) | %max (Mus musculus [5]) | Ratio ED50 (Mus musculus [6]) | other results |
| --- | --- | --- | --- | --- | --- |
| COP(=O)(OC)C(C)(COC(C)=O)N[C@@H](C)c1ccccc1 (mixture of isomers) | 0.73 to 1.37 mg | Dose-dependent effect | 96.1% | 0.67 | Activity (Mus musculus [1]): Active; Activity (Mus musculus [3]): Tde; Activity (Mus musculus [4]): Tde; Activity (Mus musculus [7]): 46.7%; Activity (Mus musculus [8]): 18.9 - 34.1% |
| COP(=O)(OC)C(C)(CO)N[C@@H](C)c1ccccc1 (mixture of isomers) | 0.95 to 1.05 mg | Dose-dependent effect | 95.6% | 0.46 |  |
| COP(=O)(OC)C(C)(COC(C)=O)NCc1ccccc1 (racemic) | 0.68 to 1.46 mg | Dose-dependent effect | 97.6% | 0.33 | Activity (Mus musculus [9]): Tde; Activity (Mus musculus [10]): Active; Activity (Mus musculus [11]): Tde; Activity (Mus musculus [12]): 63%; Activity (Mus musculus [13]): 18.9 - 34.1% |
| COc1ccc(CCNC(C)(COC(C)=O)P(=O)(OC)OC)cc1OC (racemic) | 0.77 to 1.29 mg | Dose-dependent effect | 97% | 0.37 | Activity (Mus musculus [9]): Tde; Activity (Mus musculus [10]): Active; Activity (Mus musculus [11]): Tde; Activity (Mus musculus [12]): 62.6%; Activity (Mus musculus [13]): 18.9 - 34.1% |
| COc1ccc(CNC(C)(COC(C)=O)P(=O)(OC)OC)cc1 (racemic) | 0.58 to 1.73 mg |  | 66.1% | 0.29 |  |
| C=CCNC(C)(COC(C)=O)P(=O)(OC)OC (racemic) | 0.59 to 1.68 mg | Dose-dependent effect | 74.3% | 0.28 |  |
| COc1ccc(CCNC(C)(CO)P(=O)(OC)OC)cc1OC (racemic) | 0.99 to 1 mg | Dose-dependent effect | 94.6% | 0.48 |  |
| COP(=O)(OC)C(C)(CO)NCc1ccccc1 (racemic) | 0.28 to 3.63 mg | Dose-dependent effect | 81.6% | 0.13 |  |
| COP(=O)(OC)C(C)(COC(C)=O)NCC1CCCCC1 (racemic) | 0.95 to 1.05 mg | Dose-dependent effect | 93% | 0.5 | Activity (Mus musculus [14]): 62.9%; Activity (Mus musculus [15]): 18.9 - 34.1%; Activity (Mus musculus [16]): Tde; Activity (Mus musculus [17]): Active; Activity (Mus musculus [18]): Tde |
| COP(=O)(OC)C(C)(O)COC(C)=O (racemic) | 0.1 to 10.14 mg |  | 47.2% | 0.04 |  |
| COc1ccc2c(c1)c(CC(=O)O)c(C)n2C(=O)c1ccc(Cl)cc1 [INDOMETHACIN] | 0.49 mg | Dose-dependent effect | 99.3% |  | inhibition (INH) (Mus musculus [19]): 14.6 - 99.3%; Activity (Mus musculus [20]): Active; Activity (Mus musculus [21]): 57.7%; Activity (Mus musculus [22]): 64.2% |
